Data: patent publication US11629171B2, “Beta-hairpin peptidomimetics” (POLYPHOR AG, priority 2017, dated 2023)
In brackets after ≈: the same amount, converted by molar mass. Where a SMILES comes first, the peptide text is derived from it. Bridges are numbered along the chain shown (N, C = ends). Roman numbers before positions name the chains, in order. [ ]: non-standard residue; d: D form. Thr(ol) = C[C@@H](O)[C@H](N)CO; Tle = CC(C)(C)[C@H](N)C(=O)O; Hiv = CC(C)[C@H](O)C(=O)O; dDab = NCC[C@@H](N)C(=O)O; hSer = N[C@@H](CCO)C(=O)O; Orn = NCCC[C@H](N)C(=O)O; Dab = NCC[C@H](N)C(=O)O; Abu = CC[C@H](N)C(=O)O; Dap = NC[C@H](N)C(=O)O

Legend:
Format in all cases: cell-based
[1] = tested on: human red blood cells (hRBC); assay: Hemolysis; settings: red cells of human, 1 h, 200
Summary of the method: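 Percent lysis of human red cells was derived from OD540 of the supernatant, referenced to 2% Triton X-100, after a 1 h, 37° C incubation of 20% (v/v) cells with 200 μg/mL peptide.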

[2] = tested on: Acinetobacter baumannii DSM 30008; settings: DSM 30008
Summary of the method: (§1)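 Cation-adjusted MH-II broth, 0.002% polysorbate 80, inoculum near 10^6 CFU/mL. MIC read visually after 18-20 h, 35° C; units μg/mL.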

[3] = tested on: Escherichia coli ATCC 25922; settings: ATCC 25922
Summary of the method: as §1

[4] = tested on: Acinetobacter baumannii 872842; settings: 872842
Summary of the method: as §1

[5] = tested on: Klebsiella pneumoniae 968733; settings: 968733
Summary of the method: as §1

[6] = tested on: Klebsiella pneumoniae SSI #3010; settings: SSI #3010
Summary of the method: as §1

[7] = tested on: Enterobacter cloacae 848840; settings: 848840
Summary of the method: as §1

Escherichia coli 926415 = settings: 926415
Summary of the method: as §1

[8] = tested on: Pseudomonas aeruginosa ATCC 27853; settings: ATCC 27853
Summary of the method: as §1

MIC [2]	MIC [3]	MIC [4]	MIC [5]	MIC [6]	MIC [7]	MIC (Escherichia coli 926415)	MIC [8]	Acinetobacter baumannii DSM 30008 MIC [2]	Escherichia coli ATCC 25922 MIC [3]	Klebsiella pneumoniae SSI #3010 MIC [6]	Pseudomonas aeruginosa ATCC 27853 MIC [8]	Structure (SMILES)	Hemolysis at 200 μg/mL [1]
0.0625 µg/mL (≈ 0.0256 µM)	0.03125 µg/mL (≈ 0.0128 µM)	0.0625 µg/mL (≈ 0.0256 µM)	0.5 µg/mL (≈ 0.205 µM)	0.0625 µg/mL (≈ 0.0256 µM)	0.125 µg/mL (≈ 0.0513 µM)	0.0625 µg/mL (≈ 0.0256 µM)	0.125 µg/mL (≈ 0.0513 µM)					CC(=O)N[C@H](C(=O)N[C@H](C(=O)N[C@@H](Cc1ccc(O)cc1)C(=O)N[C@H]1CSSC[C@@H](C(=O)N[C@H](C(=O)N[C@@H](CCN)C(=O)N[C@H](C(N)=O)C(C)C)C(C)(C)C)NC(=O)[C@H](Cc2c[nH]c3ccccc23)NC(=O)[C@H](CO)NC(=O)[C@@H](CCN)NC(=O)[C@H](CCC(=O)N[C@@H](CCN)C(=O)N[C@H](C(=O)N[C@@H](CN)C(=O)N[C@H]2CCNC(=O)[C@H]([C@@H](C)O)NC(=O)[C@H](CCN)NC(=O)[C@H](CCN)NC(=O)[C@H](CC(C)C)NC(=O)[C@@H](CC(C)C)NC(=O)[C@H](CCN)NC2=O)[C@@H](C)O)NC1=O)[C@@H](C)O)C(C)C [Ex. 206] (I: Ac-VTYCE[dDab]SWC[Tle][Dab]V-NH2 / II: [Dab]T[Dap][Dab][Dab][dL]L[Dab][Dab]T; disulfide I:4-I:9; amide I:5-II:N; lactam II:4-II:C)	1%
		0.25 µg/mL (≈ 0.103 µM)	1 µg/mL (≈ 0.413 µM)		0.25 µg/mL (≈ 0.103 µM)	0.5 µg/mL (≈ 0.207 µM)		0.125 µg/mL	0.0625 µg/mL	0.125 µg/mL	0.125 µg/mL	CC(=O)N[C@H](C(=O)N[C@H]1CCNC(=O)CC[C@@H](C(=O)N[C@@H](CO)C(N)=O)NC(=O)[C@H](C(C)C)NC(=O)[C@H](CO)NC(=O)[C@H](Cc2c[nH]c3ccccc23)NC(=O)[C@H](CO)NC(=O)[C@@H](CCN)NC(=O)[C@H](CCC(=O)N[C@@H](CCN)C(=O)N[C@H](C(=O)N[C@@H](CCN)C(=O)N[C@H]2CCNC(=O)[C@H]([C@@H](C)O)NC(=O)[C@H](CCN)NC(=O)[C@H](CCN)NC(=O)[C@H](CC(C)C)NC(=O)[C@@H](CC(C)C)NC(=O)[C@H](CCN)NC2=O)[C@@H](C)O)NC(=O)[C@H](CCN)NC(=O)[C@H](Cc2ccc(O)cc2)NC1=O)C(C)C [Ex. 321] (I: Ac-V[Dab]Y[Dab]E[dDab]SWSVES-NH2 / II: [Dab]T[Dab][Dab][Dab][dL]L[Dab][Dab]T; lactam I:2-I:11, II:4-II:C; amide I:5-II:N)	0%
0.0625 µg/mL (≈ 0.027 µM)	0.125 µg/mL (≈ 0.054 µM)	1 µg/mL (≈ 0.432 µM)	0.25 µg/mL (≈ 0.108 µM)	0.125 µg/mL (≈ 0.054 µM)	2 µg/mL (≈ 0.865 µM)	0.5 µg/mL (≈ 0.216 µM)	0.125 µg/mL (≈ 0.054 µM)					CC(C)C[C@@H]1NC(=O)[C@@H](CC(C)C)NC(=O)[C@H](CCN)NC(=O)[C@@H](NC(=O)[C@H](CCN)NC(=O)[C@@H](NC(=O)[C@H](CCN)NC(=O)CC[C@@H]2NC(=O)[C@H](CCN)NC(=O)[C@H](Cc3ccc(O)cc3)NC(=O)[C@@H](NC(=O)[C@@H](O)C(C)C)CSSC[C@@H](C(N)=O)NC(=O)[C@H](C(C)(C)C)NC(=O)[C@H](CO)NC(=O)[C@H](Cc3c[nH]c4ccccc34)NC(=O)[C@H](CCO)NC(=O)[C@@H](CCN)NC2=O)[C@@H](C)O)CCNC(=O)[C@H]([C@@H](C)O)NC(=O)[C@H](CCN)NC(=O)[C@H](CCN)NC1=O [Example 7] (I: H-[Hiv]CY[Dab]E[dDab][hSer]WS[Tle]C-NH2 / II: [Dab]T[Dab][Dab][Dab][dL]L[Dab][Dab]T; disulfide I:2-I:11; amide I:5-II:N; lactam II:4-II:C)	<1%

Second part, the compound before the results:

Structure (SMILES)	MIC [2]	MIC [3]	MIC [4]	MIC [5]	MIC [6]	MIC [7]	MIC (Escherichia coli 926415)	MIC [8]	Acinetobacter baumannii DSM 30008 MIC [2]	Escherichia coli ATCC 25922 MIC [3]	Klebsiella pneumoniae SSI #3010 MIC [6]	Pseudomonas aeruginosa ATCC 27853 MIC [8]	Hemolysis at 200 μg/mL [1]
CC(=O)N[C@H](C(=O)N[C@H]1CC(=O)NCC[C@@H](C(=O)N[C@@H](CO)C(N)=O)NC(=O)[C@H](C(C)C)NC(=O)[C@H](CO)NC(=O)[C@H](Cc2c[nH]c3ccccc23)NC(=O)CNC(=O)[C@@H](CCN)NC(=O)[C@H](CCC(=O)N[C@@H](CCN)C(=O)N[C@H](C(=O)N[C@@H](CN)C(=O)N[C@H]2CCNC(=O)[C@H]([C@@H](C)O)NC(=O)[C@H](CCN)NC(=O)[C@H](CCN)NC(=O)[C@H](CC(C)C)NC(=O)[C@@H](CC(C)C)NC(=O)[C@H](CCN)NC2=O)[C@@H](C)O)NC(=O)[C@H](CO)NC(=O)[C@H](Cc2ccc(O)cc2)NC1=O)C(C)C [Ex. 292] (I: Ac-VDYSE[dDab]GWSV[Dab]S-NH2 / II: [Dab]T[Dap][Dab][Dab][dL]L[Dab][Dab]T; lactam I:2-I:11, II:4-II:C; amide I:5-II:N)	0.125 µg/mL (≈ 0.0532 µM)	0.0625 µg/mL (≈ 0.0266 µM)	0.5 µg/mL (≈ 0.213 µM)	4 µg/mL (≈ 1.7 µM)	0.25 µg/mL (≈ 0.106 µM)	1 µg/mL (≈ 0.426 µM)	1 µg/mL (≈ 0.426 µM)	0.125 µg/mL (≈ 0.0532 µM)					<1%
CC[C@@H]1NC(=O)[C@@H](CC(C)C)NC(=O)[C@H](CCN)NC(=O)[C@@H](NC(=O)[C@H](CN)NC(=O)[C@@H](NC(=O)[C@H](CCN)NC(=O)CC[C@@H]2NC(=O)[C@H](CCN)NC(=O)[C@H](Cc3ccc(O)cc3)NC(=O)[C@@H](NC(=O)[C@@H](NC(C)=O)C(C)C)CSSC[C@@H](C(=O)N[C@H](C(N)=O)[C@@H](C)O)NC(=O)[C@H]([C@@H](C)CC)NC(=O)[C@H](CO)NC(=O)[C@H](Cc3c[nH]c4ccccc34)NC(=O)[C@H](CO)NC(=O)[C@@H](CCN)NC2=O)[C@@H](C)O)CCNC(=O)[C@H]([C@@H](C)O)NC(=O)[C@H](CCN)NC(=O)[C@H](CCN)NC1=O [Ex. 143] (I: Ac-VCY[Dab]E[dDab]SWSICT-NH2 / II: [Dab]T[Dap][Dab][Dab][dL][Abu][Dab][Dab]T; disulfide I:2-I:11; amide I:5-II:N; lactam II:4-II:C)	0.0625 µg/mL (≈ 0.0261 µM)	0.03125 µg/mL (≈ 0.013 µM)	0.03125 µg/mL (≈ 0.013 µM)	0.0625 µg/mL (≈ 0.0261 µM)	0.0625 µg/mL (≈ 0.0261 µM)	0.0625 µg/mL (≈ 0.0261 µM)	0.125 µg/mL (≈ 0.0521 µM)	0.125 µg/mL (≈ 0.0521 µM)					2%
CC(C)C[C@@H]1NC(=O)[C@@H](CC(C)C)NC(=O)[C@H](CCN)NC(=O)[C@@H](NC(=O)[C@H](CCN)NC(=O)[C@@H](NC(=O)[C@H](CCN)NC(=O)CC[C@@H]2NC(=O)[C@H](CCC(=O)O)NC(=O)[C@H](Cc3ccc(O)cc3)NC(=O)[C@@H](NC(=O)[C@@H](O)C(C)C)CSSC[C@@H](C(=O)N[C@H](CO)[C@@H](C)O)NC(=O)[C@H](C(C)(C)C)NC(=O)[C@H](CN)NC(=O)[C@H](Cc3c[nH]c4ccccc34)NC(=O)[C@H]([C@@H](C)O)NC(=O)[C@@H](CCN)NC2=O)[C@@H](C)O)CCNC(=O)[C@H]([C@@H](C)O)NC(=O)[C@H](CCN)NC(=O)[C@H](CCN)NC1=O [Ex. 91] (I: H-[Hiv]CYEE[dDab]TW[Dap][Tle]C[Thr(ol)] / II: [Dab]T[Dab][Dab][Dab][dL]L[Dab][Dab]T; disulfide I:2-I:11; amide I:5-II:N; lactam II:4-II:C)	0.125 µg/mL (≈ 0.0515 µM)	0.0625 µg/mL (≈ 0.0257 µM)	0.5 µg/mL (≈ 0.206 µM)	2 µg/mL (≈ 0.823 µM)	0.25 µg/mL (≈ 0.103 µM)	1 µg/mL (≈ 0.412 µM)	2 µg/mL (≈ 0.823 µM)	0.25 µg/mL (≈ 0.103 µM)					<1%
CC(=O)N[C@H](C(=O)N[C@H]1CCCNC(=O)[C@@H]([C@H](C)O)NC(=O)[C@H](C(C)(C)C)NC(=O)[C@H](CO)NC(=O)[C@H](Cc2c[nH]c3ccccc23)NC(=O)[C@H](CCO)NC(=O)[C@@H](CCN)NC(=O)[C@H](CCC(=O)N[C@@H](CCN)C(=O)N[C@H](C(=O)N[C@@H](CN)C(=O)N[C@H]2CCNC(=O)[C@H]([C@@H](C)O)NC(=O)[C@H](CCN)NC(=O)[C@H](CCN)NC(=O)[C@H](CC(C)C)NC(=O)[C@@H](CC(C)C)NC(=O)[C@H](CCN)NC2=O)[C@@H](C)O)NC(=O)[C@H]([C@@H](C)O)NC(=O)[C@H](Cc2ccc(O)cc2)NC1=O)C(C)C [Ex. 17] (I: Ac-V[Orn]YTE[dDab][hSer]WS[Tle][dT] / II: [Dab]T[Dap][Dab][Dab][dL]L[Dab][Dab]T; lactam I:2-I:C, II:4-II:C; amide I:5-II:N)	0.0625 µg/mL (≈ 0.0268 µM)	0.0625 µg/mL (≈ 0.0268 µM)	0.125 µg/mL (≈ 0.0535 µM)	0.5 µg/mL (≈ 0.214 µM)	0.125 µg/mL (≈ 0.0535 µM)	0.25 µg/mL (≈ 0.107 µM)	0.5 µg/mL (≈ 0.214 µM)	0.25 µg/mL (≈ 0.107 µM)					<1%
CC(=O)N[C@H](C(=O)N[C@H]1CSSC[C@@H](C(=O)O)NC(=O)[C@H](C(C)C)NC(=O)[C@H](CO)NC(=O)[C@H](Cc2c[nH]c3ccccc23)NC(=O)[C@H](CO)NC(=O)[C@@H](CCN)NC(=O)[C@H](CCC(=O)N[C@@H](CCN)C(=O)N[C@H](C(=O)N[C@@H](CN)C(=O)N[C@H]2CCNC(=O)[C@H]([C@@H](C)O)NC(=O)[C@H](CCN)NC(=O)[C@H](CCN)NC(=O)[C@H](CC(C)C)NC(=O)[C@@H](CC(C)C)NC(=O)[C@H](CCN)NC2=O)[C@@H](C)O)NC(=O)[C@H](CCN)NC(=O)[C@H](Cc2ccc(O)cc2)NC1=O)C(C)C [Ex. 384] (I: Ac-VCY[Dab]E[dDab]SWSVC-OH / II: [Dab]T[Dap][Dab][Dab][dL]L[Dab][Dab]T; disulfide I:2-I:11; amide I:5-II:N; lactam II:4-II:C)			2 µg/mL (≈ 0.865 µM)	>8 µg/mL		2 µg/mL (≈ 0.865 µM)	4 µg/mL (≈ 1.73 µM)		1 µg/mL	0.125 µg/mL	0.25 µg/mL	0.5 µg/mL	<1%
